One experiment has as its target Hfq65 (Escherichia coli, UniProt P0A6X3). The settings on record: dsRNA product (D16-FAM·R16) versus ssRNA substrate (D16-FAM). The protocol: Annealing kinetics of molecular beacon (50 nM) to either Target or Target-A18 RNA (100 nM) by 0–200 nM Hfq hexamer, in 1X TNK (10 mM Tris·HCl pH 7.5, 50 mM NaCl, 50 mM KCl) buffer at 30°C was measured by stopped-flow fluorescence spectroscopy as described previously ([Soper et al., 2011]; [Panja and Woodson, 2012b]). Annealing progress curves were fit to single or double-exponential rate equations.

The next experiment relates to Target and Target-U6 RNA. Put plainly: RNA annealing kinetics (molecular beacon with Target and Target-U6), stopped-flow fluorescence. The class given is biochemical. The settings on record: 16 nt Target and Target-U6 RNA; 30 °C. The procedure: Figure 4. Shortening the CTD increases auto-inhibition by acidic residues. (A) Observed annealing rate constants for 100 nM target RNA and 50 nM molecular beacon with 0–200 nM Hfq hexamer at 30°C, measured by stopped-flow fluorescence. Black, Hfq102; red, Hfq-sCTD; cyan, Hfq65. (B) Fluorescence anisotropy assay for RNA binding and release. In stopped-flow FRET experiments, the dsRNA is released after pairing with its complementary strand ([Panja et al., 2013]; [Santiago-Frangos et al., 2016]). […] Remaining RNA was displaced from Hfq by excess ssDNA (400 nM DNA2). The averages and standard deviations for three trials are plotted for each Hfq variant. […] (D) Annealing of 5 nM ^32P-ChiX sRNA with 30 nM chiP mRNA without Hfq, or with Hfq65, Hfq102 or Hfq-sCTD, as indicated above each lane. Samples were loaded on a native polyacrylamide gel 60 min or 20 s after the components were mixed. […] (E) Fractions of free ChiX (black), ChiX·chiP dsRNA (light grey), ChiX·Hfq·chiP ternary complex (hatched) and ChiX·Hfq binary complex (dark grey) after 4 min of annealing, as analyzed by EMSA (Figure 4—figure supplement 2). […] Annealing of 100 nM Target RNA to 50 nM beacon RNA by Hfq variants was measured by stopped flow fluorescence at 30°C in 1 × TNK buffer. […] The change in fluorescence emission intensity was normalized to the maximum fluorescence within an experiment. […]

In the next experiment the test system is Hfq102. Put plainly: RNA binding to Hfq102, fluorescence anisotropy. Also noted: species or system E. coli. The settings on record: dsRNA product (D16-FAM·R16) versus ssRNA substrate (D16-FAM).

Hfq65, sequence (P0A6X3 1-65): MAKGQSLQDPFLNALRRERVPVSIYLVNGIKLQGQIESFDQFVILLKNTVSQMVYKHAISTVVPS

As to “Hfq65: truncated E. coli Hfq variant lacking the CTD”, the “Krel = Kd(P)/Kd(S), Hfq65” value in the experiment with Hfq65 was determined as 2.3. Also, the “annealing rate of Hfq65 relative to Hfq102” value with Target and Target-U6 RNA is reported as “about five times faster than full-length Hfq102”.

For the substance Hfq102: full-length E. coli Hfq, the “Krel = Kd(P)/Kd(S), Hfq102” value in the experiment with Hfq102 is reported as 7.5.

(Values after publication PMC5606850, “Acidic C-terminal domains autoregulate the RNA chaperone Hfq” (eLife, 2017).)
